We go through one compound from US20080171764A1, “METHODS FOR PREVENTING, MANAGING, AND REVERSING DISEASE CAUSED BY INFLAMMATION MEDIATED VASCULAR LESIONS” (priority 2007, published 2008).

Where only a bound is given, the exact number is not on record here.

Data set [1] is described as follows: plasma lipids (total cholesterol, triglycerides, LDL and HDL cholesterol). The format is in vivo, mice. The text has this: (§1) ApoE^−/− mice (backcrossed ten times to the C57BL/6 background) were purchased from The Jackson Laboratory. The mice were kept on a twelve-hour light/twelve-hour dark regimen upon arrival. All animal experiments were approved by the IACUC of the Consumer & Personal Product Worldwide, in accordance with AAALAC guidelines. Eight week old, male apoE^−/− mice were fed a normal mouse-chow diet (RP5001; PMI Feeds Inc., St. Louis, Mo.) and acclimated for one week before switching to a pro-atherogenic high fat, high cholesterol, diet (“Western diet”, 21% fat, 0.2% cholesterol, diet No. 88137, Harlan-Teklad, Madison, Wis.) for four weeks.
Upon initiation of the pro-atherogenic diet, Alzet osmotic mini-pumps (Model 2004; ALZA Scientific Products, Mountain View, Calif.) were implanted into the apoE^−/− mice subcutaneously. The mini-pumps were loaded with angII (EMD Biosciences, San Diego, Calif.) at the delivery rate of 1,000 ng/min/kg for twenty-eight days. The mice were anesthetized using isoflurane for the implantation of the mini-pumps. […]
Plasma triglyceride and total cholesterol levels were determined via an automated enzymatic technique (Equal Diagnostic Inc., Exton, Pa.). […] Aliquots of mouse plasma (100 μl) were injected onto the column, separated with a buffer containing 0.15 M NaCl, 0.01 M Na2HPO4, and 0.1 mM EDTA (pH 7.5) at a flow rate of 0.5 mL/min, and analyzed for lipids.

In data set [2] the test system is apoE−/− mice. The data set is described as follows: atherosclerosis quantitation, en face surface lesion analysis (Sudan IV), 4-week study. The conditions noted are these: 1.0 mg/kg ip once daily, vehicle 12.9±1.8%, P<0.0005. The format is in vivo. The text has this: ApoE^−/− mice (backcrossed ten times to the C57BL/6 background) were purchased from The Jackson Laboratory. The mice were kept on a twelve-hour light/twelve-hour dark regimen upon arrival. All animal experiments were approved by the IACUC of the Consumer & Personal Product Worldwide, in accordance with AAALAC guidelines. Eight week old, male apoE^−/− mice were fed a normal mouse-chow diet (RP5001; PMI Feeds Inc., St. Louis, Mo.) and acclimated for one week before switching to a pro-atherogenic high fat, high cholesterol, diet (“Western diet”, 21% fat, 0.2% cholesterol, diet No. 88137, Harlan-Teklad, Madison, Wis.) for four weeks. […]
As stated above, the mice were sacrificed by CO2 inhalation and bled from the abdominal vena cava. […] Atherosclerosis quantitation was assessed using two independent methods: “en face” surface lesion analysis and aortic root analysis. […] The extent of atherosclerosis is expressed as the percent of the aortic surface area covered by lesions. Aortic root analysis provided a second method verifying atherosclerosis quantitation. Briefly, alternate 8-μm frozen sections covering 300 μm of the proximal aorta, starting at the aortic sinus, were stained for atherosclerotic lesions with oil red O. Images of oil red O-stained aortic root sections were captured and analyzed using Image-Pro 6.0 analysis software. […]

In data set [3] the test system is apoE−/− mice. The experiment in a line: abdominal aortic adventitia lesion / AAA analysis (incidence, severity, diameter). The format is in vivo.
Description: as §1
Upon initiation of the pro-atherogenic diet, Alzet osmotic mini-pumps (Model 2004; ALZA Scientific Products, Mountain View, Calif.) were implanted into the apoE^−/− mice subcutaneously. The mini-pumps were loaded with angII (EMD Biosciences, San Diego, Calif.) at the delivery rate of 1,000 ng/min/kg for twenty-eight days. The mice were anesthetized using isoflurane for the implantation of the mini-pumps. Small incisions in the lower back of the neck were made and the mini-pumps were inserted into the subcutaneous space of the mice. The incisions were then closed using sterile staplers. Triple antibiotic ointment was applied to each incision post surgery. The mice on the high fat, high cholesterol diet were sacrificed by CO2 inhalation twenty-eight days post mini-pump implantation as is explained in detail subsequently. […]
The abdominal aorta was subjected to abdominal aortic adventitia lesion analysis. […] Classification of the adventitia lesions was determined according to the scale based on the gross appearance of the aorta reported by Daugherty et al. Briefly, I: Dilated lumen in the supra-renal region of the aorta with no thrombus; II: Remodeled tissue in the supra-renal region that frequently contains thrombus; III: A pronounced bulbous form of type II that contains thrombus; IV: A form in which there are multiple adventitia lesions containing thrombus, some overlapping, in the suprarenal area of the aorta.

Data set [4] in a line: sirolimus whole blood pharmacokinetics in apoE-/- mice (LC-MS/MS). The format is in vivo. The conditions noted are these: i.p. daily, 0.5, 1.0 and 4.0 mg/kg. The procedure: (§2) Upon initiation of the pro-atherogenic diet and osmotic mini-pump implantation, mice were randomly assigned to four groups; namely, vehicle control, rapamycin or sirolimus 0.5 mg/kg, sirolimus 1.0 mg/kg and sirolimus 4.0 mg/kg body weight. The defined amount of sirolimus was dissolved in ethanol, brought up in a vehicle comprising 0.2 percent Sodium carboxymethylcellulose and 0.25 percent tween 80) and administrated to mice (i.p., daily).
Sirolimus was quantitated using liquid-liquid extraction and reverse-phase liquid chromatography mass spectrometry (LC-MS/MS). Briefly, 100 μl of mouse whole blood sample underwent protein precipitation with 5 percent Methanol/Zinc sulfate solution containing the internal standard ascomycin. After centrifugation of the resulting solution, the liquid mixture proceeded with liquid-liquid extraction with 1-chlorobutane. The combined organic extract was then blown down to dryness and reconstituted with 50:50 Methanol:20 mM ammonium acetate solution. The samples were analyzed on API-5000 using C18 reverse-phase chromatography in Multiple Reaction Monitoring (MRM) mode using atmospheric pressure chemical ionization (ApCI) approach. The calibration standard curve results for sirolimus in mouse whole blood were acceptable from 0.5 ng/ml to 10,000 ng/ml with correlation coefficient of 0.998. […]

The subject of data set [5] is apoE−/− mice. The experiment in a line: health status, body weight and re-suturing incidence post mini-pump surgery. The format is in vivo.
Description: as §1
Upon initiation of the pro-atherogenic diet, Alzet osmotic mini-pumps (Model 2004; ALZA Scientific Products, Mountain View, Calif.) were implanted into the apoE^−/− mice subcutaneously. The mini-pumps were loaded with angII (EMD Biosciences, San Diego, Calif.) at the delivery rate of 1,000 ng/min/kg for twenty-eight days. The mice were anesthetized using isoflurane for the implantation of the mini-pumps. Small incisions in the lower back of the neck were made and the mini-pumps were inserted into the subcutaneous space of the mice. The incisions were then closed using sterile staplers. Triple antibiotic ointment was applied to each incision post surgery. The mice on the high fat, high cholesterol diet were sacrificed by CO2 inhalation twenty-eight days post mini-pump implantation as is explained in detail subsequently.
as §2
The data is depicted as re-suturing incedince post surgery per group size. A clear increase of the suture index is observed in response to sirolimus administration in a dose dependent manner.

Data set [6] deals with apoE−/− mice. The data set is described as follows: second study: established lesions, 8 weeks angII infusion and proatherogenic diet, en face analysis. The class given is in vivo. The conditions noted are these: 1.0 mg/kg ip once daily for last 4 of 8 weeks; vehicle 37.6±2.7%, P<0.0001. The procedure: As stated above, the mice were sacrificed by CO2 inhalation and bled from the abdominal vena cava. The aortas were perfusion-fixed and post-fixed in 4 percent paraformaldehyde. Atherosclerosis quantitation was assessed using two independent methods: “en face” surface lesion analysis and aortic root analysis. The aortic arch and thoracic aorta (defined as above the last inter-costal artery) was subjected to “en face” analysis. Briefly, the aorta with major branches (left common carotid artery, right common carotid artery, left subclavian artery) was opened up. The lipid deposition in the inner aortic wall was stained in Sudan IV buffer. […] The extent of atherosclerosis is expressed as the percent of the aortic surface area covered by lesions. Aortic root analysis provided a second method verifying atherosclerosis quantitation. Briefly, alternate 8-μm frozen sections covering 300 μm of the proximal aorta, starting at the aortic sinus, were stained for atherosclerotic lesions with oil red O. Images of oil red O-stained aortic root sections were captured and analyzed using Image-Pro 6.0 analysis software. All samples were coded by one investigator and analyzed by another investigator who is completely blinded to the codes. […]

Regarding `CO[C@H]1C[C@@H]2CC[C@@H](C)[C@@](O)(O2)C(=O)C(=O)N2CCCC[C@H]2C(=O)O[C@H]([C@H](C)C[C@@H]2CC[C@@H](O)[C@H](OC)C2)CC(=O)[C@H](C)/C=C(\C)[C@@H](O)[C@@H](OC)C(=O)[C@H](C)C[C@H](C)/C=C/C=C/C=C/1C` [sirolimus], in data set [1] (all sirolimus treated mice vs vehicle control), the “elevation of LDL cholesterol” value is recorded as > 60%. Further, the plasma triglyceride result in data set [1] (regardless of the dosage employed) is recorded as “trend of elevated triglyceride”. Also, the “atherosclerotic plaque area (en face analysis) at 4 weeks” value with apoE−/− mice [2] stood at 3.1±0.4%. Besides, the “incidence of abdominal aortic adventitia lesion” value in the data set with apoE−/− mice [3] (1 of 22 mice receiving sirolimus, vehicle control 30 percent (3 of 10)) is recorded as 4.5%. Besides, the “severity of AAA as determined by aortic diameter” value in the data set with apoE−/− mice [3] (vehicle 1.38±0.25 mm, P<0.005) worked out at 0.74±0.02 mm. In the data set with apoE−/− mice [3] (vehicle 32%, P<0.005), the “incidence of AAA” value amounted to 0%. Further, in data set [4], the “time of peak whole blood drug level post injection” value stood at 1 h. The “whole blood drug level at 24 hours” value in data set [4] (24 hours post injection) is given as “trace level”. For the same compound, the “incidence of re-suturing post surgery for mini-pump implantation (wound healing)” value in the data set with apoE−/− mice [5] (0.5, 1.0 and 4.0 mg/kg i.p. daily) was “increased incidence of re-suturing”. Further, in the data set on apoE−/− mice [5] (all 3 sirolimus treated groups vs vehicle control), the body weight entry was “trend of decreased body weight”. In addition, the health status entry with apoE−/− mice [5] (apoE−/− mice, i.p. daily, 0.5, 1.0 and 4.0 mg/kg, 4 weeks) is “not overtly affected”. Also, the “atherosclerotic plaque area (en face analysis) of established lesions at 8 weeks” value in the data set on apoE−/− mice [6] is 18.4±2.3%.
